Experimental data reported in US20200315996A1 (Board of Trustees, Southern Illinois University, priority 2016, published 2020).

Experiments:
endometriotic lesions = experiment: Mouse model of endometriosis, growth of implanted endometriotic lesions (Study 1); type: in vivo, mice; conditions: for lesion weight / lesion volume: 3 weeks; for lesion weight: controls 0.044±0.007 g; for lesion volume: controls 40.1±6.6 mm3; for total weight of lesions: controls 154.0±29.3 mg
Description: An experimental mouse model of endometriosis was established adopting procedures described previously with some modification [Han, 2012; Hirata, 2005; Kulak, 2011; Pelch, 2012; Zhao, 2014]. Female, eight week old B6-GFP mice were used as donor mice. These mice are transgenic mice whose cells endogenously express a green fluorescent protein (GFP) which is detectable under fluorescent light. When implanted to a GFP-negative recipient mouse, tissue implants from GFP-positive donor mice can be distinguished from the tissues of the recipient mice. Ectopic GFP-positive lesions were microscopically examined to evaluate the implants for accurate growth and progression. Briefly, the uterine horns were removed from donor mice during the diestrus stage of the reproductive cycle. […] Then, the uterine pieces were maintained in warmed DMEM/F12 medium (#10-090, Corning). […] The recipient mice were selected during the diestrus stage and anesthetized. In each mouse, a longitudinal abdominal incision was made, and uterine pieces from donor mice were sutured to the right or left side of the peritoneal walls of each animal (implanting each 2-mm and 3-mm piece per side) using a 6-0 braided silk suture (# SUT-1073-11, Roboz). Then, the abdominal incision was closed with a 4-0 braided silk suture (# SUT-1073-31, Roboz). […] Uterine tissue pieces of B6-GFP mice (donor) were implanted into the peritoneal walls of recipient mice. […] The lesion volume was calculated according to the formula (L×W^2), where L is length and W is width [[…], 2007].

PTGS2 (COX2) = experiment: Immunohistochemistry of endometriotic lesions, PTGS2; type: in vivo, mice; conditions: 3 weeks; for % of PTGS2 positive cells/total cells/0.007 mm^2, Stroma: control 20.1 ± 2.2; for % of PTGS2 positive cells/total cells/0.007 mm^2, Epithelium: control 98.4 ± 0.5
Description: The presence and location of different proteins in the tissues obtained from the recipient mice. Samples of uterine tissue were isolated from the recipient mice, fixed by standard histological methods, and embedded in paraffin. Thin sections (5 μm) of the paraffin-embedded tissues were screened with standard immunohistochemical methods using antibodies to identify the expression of in the uterine tissues.
Primary antibodies that recognized MKI67 (Ki67), PECAM1 (CD31), ESR1, PGR, p-CHUK (IKK), p-STAT3, NOS2 (iNOS) and PTGS2 (COX2), and Vectastain Elite ABC Kit (# PK-6101), Mouse on Mouse Basic Kit (# BMK-2202, Vector laboratories) or DyLight-conjugated secondary antibody (#711-516-152, Jackson ImmunoResearch Lab) were used to show the presence of the proteins in the tissues, which were examined under microscopes.
The primary antibodies used in these analyses were: anti-MKI67 (Ki67, 1:200 dilution, 550609, BD Biosciences), anti-PECAM1 (CD31, 1:100 dilution, ab28364, Abcam), anti-ESR1 (1:100 dilution, sc-542, Santa Cruz Biotechnology), anti-PGR (1:200 dilution, RB-9017-P0, Thermo Scientific), anti-p-CHUK (IKK, 1:150 dilution, 2697, Cell Signaling Technology), anti-p-STAT3 (1:50 dilution, 9145, Cell Signaling Technology), anti-NOS2 (iNOS, 1:50 dilution, 610333, BD Biosciences) and anti-PTGS2 (COX2, 1:50 dilution, RM-9121, Thermo Scientific).
(§1) The expression of MKI67, ESR1, PGR, p-CHUK, p-STAT3, NOS2 and PTGS2 proteins in uterine tissues, as determined by immunohistochemical analysis of uterine tissue sections, was semiquantitatively analyzed. Levels of apoptosis were analyzed by TUNEL assay and also semiquantitatively analyzed. Histological sections were obtained from 4 different lesions. For each section, three different areas measuring 0.007 mm^2 were chosen. In each of those areas, the total number of epithelial or stromal cells was counted, as was the number of cells that tested positive for expressing MKI67 (a marker of cellular proliferation), steroid receptors ESR1 and PGR, and inflammatory signaling molecules p-CHUK, p-STAT3, NOS2 and PTGS2 proteins.
The expression of PTGS2 (COX2), an inflammatory molecule […] by NFκB and STAT3 signaling, was examined with a primary antibody against PTGS2.

mice = conditions: cited from earlier work
NOS2 (iNOS) = experiment: Immunohistochemistry of endometriotic lesions, NOS2; type: in vivo, mice; conditions: 3 weeks; for % of NOS2 positive cells/total cells/0.007 mm^2, Stroma: control 75.2 ± 4.6
Description: as §1, with “The presence and location of different proteins in the tissues obtained from the recipient mice. Samples of uterine tissue were isolated from the recipient mice, fixed by standard histological methods, and embedded in paraffin. Thin sections (5 μm) of the paraffin-embedded tissues were screened with standard immunohistochemical methods using antibodies to identify the expression of in the uterine tissues. […] The expression” for “The expression”, “semiquantitatively analyzed. […] Histological sections” for “semiquantitatively analyzed. Histological sections”

O=C(Nc1ccc([N+](=O)[O-])cc1Cl)c1cc(Cl)ccc1O [niclosamide, 5-chloro-N-(2-chloro-4-nitrophenyl)-2-hydroxybenzamide]
lesion weight (endometriotic lesions; 100 mg/kg b.w./day oral): 0.023 ± 0.004 g | lesion volume (endometriotic lesions; 100 mg/kg b.w./day oral, no significant difference): 23.15±5.0 mm3 | lesion weight (endometriotic lesions; 200 mg/kg b.w./day oral): 0.016 ± 0.003 g | lesion volume (endometriotic lesions; 200 mg/kg b.w./day oral): 7.4±0.8 mm3 | number of lesions between treatment groups (endometriotic lesions; oral 50, 100 or 200 mg/kg b.w. vs controls): did not differ | total weight of lesions (endometriotic lesions; oral niclosamide 50 mg/kg b.w., n=7): 114.9 ± 31.6 mg | total weight of lesions (endometriotic lesions; oral niclosamide 100 mg/kg b.w., n=9): 76.2 ± 18.3 mg | total weight of lesions (endometriotic lesions; oral niclosamide 200 mg/kg b.w., n=20): 44.9 ± 7.43 mg | % of PTGS2 positive cells/total cells/0.007 mm^2, Stroma (PTGS2 (COX2); 100 mg/kg b.w./day oral): 20.3 ± 3.3% | % of PTGS2 positive cells/total cells/0.007 mm^2, Epithelium (PTGS2 (COX2); 100 mg/kg b.w./day oral): 98.2 ± 0.5% | % of PTGS2 positive cells/total cells/0.007 mm^2, Stroma (PTGS2 (COX2); 200 mg/kg b.w./day oral): 22.8 ± 2.0% | % of PTGS2 positive cells/total cells/0.007 mm^2, Epithelium (PTGS2 (COX2); 200 mg/kg b.w./day oral): 98.7 ± 0.7% | LD50, acute toxicity (mice): > 1500 mg/kg b.w. | % of NOS2 positive cells/total cells/0.007 mm^2, Stroma (NOS2 (iNOS); 100 mg/kg b.w./day oral): 57.8 ± 4.3% | % of NOS2 positive cells/total cells/0.007 mm^2, Epithelium (NOS2 (iNOS); 100 mg/kg b.w./day oral, control 99.5 ± 0.4): 99.5 ± 0.5% | % of NOS2 positive cells/total cells/0.007 mm^2, Stroma (NOS2 (iNOS); 200 mg/kg b.w./day oral): 61.9 ± 5.7% | % of NOS2 positive cells/total cells/0.007 mm^2, Epithelium (NOS2 (iNOS); 200 mg/kg b.w./day oral, control 99.5 ± 0.4, p < 0.05): 86.2 ± 5.9 %
